According to US6288028A, “BPC peptide salts with organo-protective activity, the process for their preparation and their use in therapy” (priority 1997, dated 2001):
Where no end group is shown, it is not given here.

Legend:
[1] = system: gastric lesions (96% ethanol); experiment: Ethanol gastric lesions, NO-system; assay type: in vivo, rats; settings: for effect on ethanol gastric lesions, agent given alone: NaBPC157 10 μg or 10 ng/kg i.p. with 96% ethanol i.g., 1 hour, L-NAME 5 mg/kg i.v., L-arginine 200 mg/kg i.v. 5 minutes before
Experimental: Some of the effects of NaBPC157 (10 μg or 10 ng/kg) were challenged in rats, such as the salutary activity against gastric lesions and NaBPC157's activity with respect to blood pressure maintenance. The lesions were obtained by using a 1 hour ethanol treatment (96%, i.g. (intragastrically)). NaBPC157 was simultaneously applied (i.p. (intraperitoneally)). In the blood pressure maintenance experiment, NaBPC157 was given intravenously (i.v.).
Also studied was the combined application of N^G -nitro-L-arginine methylester (L-NAME) (5 mg/kg i.v.), a competitive inhibitor of endothelium nitric oxide (NO)-generation and the NO-precursor L-arginine (200 mg/kg i.v.) (D-arginine was ineffective). In the gastric lesion assays, the NO-agents were given 5 minutes before the ethanol injury and the treatment with NaBPC157.

[2] = system: Pulmonary Hypertension Syndrome (PHS) and tissue lesions; experiment: Pulmonary Hypertension Syndrome, acute and chronic toxicity; assay type: in vivo, chicks; settings: for tissue or organ damage (pathohistology): acute and chronic toxicity
Experimental: The present experiments describe the effects of nitric oxide (NO) agonists and antagonists and the influence of NaBPC157 on the development of Pulmonary Hypertension Syndrome (PHS) and tissue lesions in chicks. Experiments investigating acute toxicity were conducted. These included single dose applications of saline (1 ml i.p.), NaBPC157 (10 μg/kg b.w.), L-NAME (NO antagonist/doses 50, 100, 150 mg/kg b.w.) and L-arginine (NO agonist/100 mg/kg b.w./with their combination (L-NAME+NaBPC157, L-NAME+L-arginine)). Pathohistological examinations of the spleen, heart, liver and lungs and hematological analyses were conducted. Furthermore, chronic toxicity experiments were conducted. The animals were treated daily during five weeks with L-NAME (10 mg/kg b.w.), L-arginine (100 mg/kg b.w.), NaBPC157 (10 μg/kg b.w.) and their combinations (L-NAME+NaBPC157, L-NAME+L-arginine) intraperitoneally. Seven animals from each group including controls (saline 1 ml i.p.) were sacrificed every week.

restraint stress lesions = experiment: 48 hour-restraint stress ulcer model; assay type: in vivo, rats
Experimental: (§1) The effects of NaBPC157 (10 μg or 10 ng/kg i.p., i.g.) were investigated in rats in comparison with several reference standards in several experimental ulcer models (48 hour-restraint stress, subcutaneous cysteamine, intragastrical 96% ethanol ulcer tests, NSAIAs-lesions, DNFB (Dinitrofluorhenzene), reflux esophagitis following esophagojejunal termino-lateral anastomosis) (pre-/co-/post-treatment).

DNFB-intestinal lesions = experiment: DNFB-intestinal lesions; set-up: species or system rats; settings: rat, in vivo
Experimental: as §1

[3] = system: mobility in chronically stressed rats; experiment: Chronic unpredictable stress, open field-immobility test; assay type: in vivo, rat; settings: NaBPC157 10 μg, 10 ng; imipramine 30 mg; once daily
Excerpt: Various antidepressants have antiulcer activity and the models currently used in ulcer and depression research share a considerable degree of similarity. Therefore, the possibility that depression disorders could be effectively influenced by a primary antiulcer agent with cyto-/organo-protective activity such as NaBPC157 was investigated in two rat depression assays: the forced swimming test (a Porsolt's procedure) and the chronic unpredictable stress method (after five days of unpredictable stress protocol, once-daily drug application during the stress procedure and an open field-immobility test assessment at fourth and sixth days of medication).

[4] = system: portal blood pressure, organ lesions; experiment: Chronic alcohol intoxication; assay type: in vivo, Male Albino Wistar rats; settings: alcohol for three months; NaBPC157 10 μg, 10 ng/kg; propranolol, ranitidine 10 mg/kg b.w.
Experimental: The effects of NaBPC157 on chronic alcohol intoxication were examined. Male Albino Wistar rats were used for these experiments. The rats were drinking either commercial whiskey or ethanol (10-20% water solution) for three months. The application of NaBPC157 (10 μg, 10 ng/kg b.w.), propranolol (10 mg/kg b.w.), and ranitidine (10 mg/kg b.w.) (control rats received an equivolume of saline 5.0 ml/kg), either intragastrically or intraperitoneally, was conducted either prophylactically (10 days before alcohol initiation) or as a co-treatment together with alcohol or therapeutically (starting at the end of a two month period, i.e. during the last month of the experiment).

reflux esophagitis = experiment: Reflux esophagitis after esophagojejunal anastomosis; set-up: species or system rats; settings: rat, in vivo
Experimental: as §1

[5] = system: amphetamine stereotyped behavior; experiment: Amphetamine stereotypes and excitability; assay type: in vivo, rats; settings: no amphetamine
Experimental: The effects of NaBPC157 on the dopamine agonist amphetamine (10 mg/kg i.p.) stereotypes and on excitability were studied. NaBPC157 was applied as a prophylactic co-treatment or therapeutic salutary regimen (10 μg or 10 ng/kg i.p.). The stereotyped behaviour and excitability was induced in rats.

[6] = system: diazepam tolerance and withdrawal; experiment: Diazepam tolerance and physical dependence, isoniazid latencies; set-up: species or system mice; settings: mouse, in vivo
Experimental: In tolerance assays forty-two hours after the conditioning regimen, shorter preconvulsive latencies than that in healthy mice following an isoniazid treatment (800 mg/kg i.p.) were observed if diazepam (5.0 mg/kg i.p.) was given again to mice previously conditioned with diazepam alone. […] In this group at six hour intervals, unlike in diazepam conditioned mice, isoniazid preconvulsive latencies were still longer than in corresponding controls.

Toxicity observations = assay type: in vivo; settings: high dosages (e.g. g/kg b.w., i.p.)
ethanol ulcer = experiment: Intragastrical 96% ethanol ulcer test; assay type: in vivo, rats; settings: reference peptides; related to treatment conditions
cysteamine ulcer = experiment: Subcutaneous cysteamine ulcer test; assay type: in vivo, rats; settings: reference peptides

## N=C(N)NCCC[C@@H](N)C(=O)O [D-arginine]
[1]
  effect on ethanol gastric lesions, agent given alone: ineffective

## COC(=O)[C@@H](N)CCCNC(=N)N[N+](=O)[O-] [L-NAME, N^G -nitro-L-arginine methylester]
[2]; L-NAME
  induction of PHS: caused PHS
[2]
  tissue or organ damage (pathohistology): caused severe tissue damage
[2]; in vivo
  hematological analyses: significant hemoglobin and leukocyte number decreases
[1]
  effect on ethanol gastric lesions, agent given alone: had no effect

## N=C(N)NCCC[C@H](N)C(=O)O [L-arginine]
[2]
  tissue or organ damage (pathohistology): provoked predominantly congestion, edema and hemorrhages in all organs
[2]; in vivo
  inhibition of the effects of L-NAME: successfully inhibited
[2]; simultaneous application, L-arginine 100 mg/kg, NaBPC157 10 μg/kg b.w.
  prevention of L-NAME-caused PHS: prevented
[1]; L-NAME 5 mg/kg i.v. 5 minutes before ethanol
  antiulcer activity after L-NAME: completely abolished
[1]
  effect on ethanol gastric lesions, agent given alone: antiulcer effect

## NC12CC3CC(CC(C3)C1)C2 [amatadine]
Restraint stress lesions
  effect in restraint stress: ineffective

## CC(C)C[C@H]1C(=O)N2CCC[C@H]2[C@]2(O)O[C@](NC(=O)[C@@H]3C=C4c5cccc6[nH]c(Br)c(c56)C[C@H]4N(C)C3)(C(C)C)C(=O)N12 [bromocriptine]
Restraint stress lesions
  effect in restraint stress: ineffective
DNFB-intestinal lesions
  effect on DNFB-intestinal lesions: only partially effective

## CN/C(=N/CCSCc1nc[nH]c1C)NC#N [cimetidine]
Restraint stress lesions
  effect in restraint stress: ineffective

## NC(N)=Nc1nc(CSCCC(N)=NS(N)(=O)=O)cs1 [famotidine]
Restraint stress lesions
  effect in restraint stress: ineffective

## CN(C)CCCN1c2ccccc2CCc2ccccc21 [imipramine]
[3]
  mobility in chronic unpredictable stress: failure of imipramine activity

## CC(C)NCC(O)COc1cccc2ccccc12 (stereo not drawn) [propranolol]
[4]
  portal blood pressure: markedly prevented and/or decreased

## CNC(=C[N+](=O)[O-])NCCSCc1ccc(CN(C)C)o1 [ranitidine]
Reflux esophagitis
  effect on reflux esophagitis: only partially effective
[4]
  portal blood pressure: even more increased portal pressure values

## C[C@H](N)C(=O)NCC(=O)N[C@H]1CSSC[C@@H](C(=O)O)NC(=O)[C@H](CO)NC(=O)[C@H]([C@@H](C)O)NC(=O)[C@H](Cc2ccccc2)NC(=O)[C@H]([C@@H](C)O)NC(=O)[C@H](CCCCN)NC(=O)[C@H](Cc2c[nH]c3ccccc23)NC(=O)[C@H](Cc2ccccc2)NC(=O)[C@H](Cc2ccccc2)NC(=O)[C@H](CC(N)=O)NC(=O)[C@H](CCCCN)NC1=O [somatostatin]
Restraint stress lesions
  effect in restraint stress: ineffective

## GEPPPGKPADDAGLV [NaBPC157, Monosodium Salt of BPC157]
[2]
  tissue or organ damage (pathohistology): did not cause any tissue or organ damage
[5]
  gross behavior, agent alone: does not affect gross behavior or induce stereotypes
[6]
  tolerance effect of the agent itself: does not produce any tolerance effect
Toxicity observations
  influence on basal parameters: No influence on different basal parameters
  toxicity at high dosages: no toxicity

## NPY
Ethanol ulcer
  effect, ethanol: partial positive effect
Cysteamine ulcer
  protection, cysteamine: dose-dependent protection

## secretin
Ethanol ulcer
  effect, ethanol: partial positive effect
Cysteamine ulcer
  protection, cysteamine: dose-dependent protection

## sucralfate
Reflux esophagitis
  effect on reflux esophagitis: only partially effective
